Laboratory results as given in EP1311531B1, “STEROID DERIVED ANTIBIOTICS” (Brigham Young University, priority 2000, dated 2002).
In brackets after ≈: the same amount, converted by molar mass. Read-outs that look alike come from different tables or passages of the source.

How the values were obtained:
[1] = test system: Staphylococcus aureus ATCC 25923; assay: MIC and MBC measurement; assay type: cell-based; conditions: Table 16 (MIC^a), S. aureus (ATTC 25923)
Text: (§1) General: Microorganisms. Reference strains were purchased from the American Type Culture Collection (Rockville, MD) or Bactrol disks from Difeo Laboratories (Detroit, MI). The following specific ATCC strains were used: 10798 Escherichia coli, 25922 Escherichia coli, 13883 Klebsiella pneumoniae, 27853 Pseudomonas aeruginosa, 14028 Salmonella typhimurium, 29212 Enterococcus faecalis, 25923 Staphylococcus aureus, 19615 Streptococcus pyogenes, and 90028 Candida albicans. Bacterial strains were maintained on Mueller-Hinton agar plates, and Candida albicans was maintained on Sabouraud Dextrose agar plates.
(§2) Tryptic soy broth (TSB) was made by dissolving 27.5 grams of tryptic soy broth without dextrose (DIFCO Laboratories) in 1 liter of deionized water and sterilizing at 121 °C for 15 minutes. Solid agar (TSA) plates were made by dissolving 6.4 grams of tryptic soy broth and 12 grams of agar (purified grade, Fischer Scientific) in 800 mL of deionized water and sterilizing at 121 °C for 20 minutes. Aliquots (20 mL) of the homogeneous solution were then poured in sterile plastic petri dishes (100 x 15 mm, Fisher Scientific). Solutions of compounds were made by dissolving the HCl salt of the respective compound into an appropriate amount of deionized and sterilized water followed by microfiltration.
(§3) Aliquots of 1 mL of the suspension were added to test tubes containing 1 mL TSB and incrementally varied concentrations of cholic acid derivatives and/or erythromycin or novobiocin. In the sensitization experiments, erythromycin or novobiocin were added 15 minutes later than the cholic acid derivatives. The samples were subjected to stationary incubation at 37°C for 24 hours. Sample turbidity was determined by measuring absorption at 760 nm (HP 8453 UV-Visible Chemstation, Hewlett Packard). Additionally, an alliquot from each of the samples showing no measurable turbidity was subcultured on TSA plates (alliquots were diluted to provide fewer than 300 CFU). Colonies that grew on the subculture after overnight incubation were counted and the number of CFU/mL in the samples were calculated. The calculated values were compared to the number of CFU/mL in the original inoculum. […]

[2] = test system: Escherichia coli ATCC 25922; assay: MIC and MBC measurement; assay type: cell-based
Text: as §1, §2, §3

[3] = Minimum hemolytic concentration (MHC); assay type: cell-based; conditions: Table 16
Procedure: Minimum inhibition concentrations (MIC) and minimum hemolytic concentrations (MHC) were measured as described in Li et al., Antimicrob. Agents. Chemother., 1999, 43, 1347. […]

[4] = test system: Escherichia coli ATCC 25922; assay: Sensitization to erythromycin, novobiocin or rifampicin (permeabilization, FIC); conditions: for c: concentration of the compounds required to lower the MIC of erythromycin from 30 to 1 µg/mL: Table 16, with E. coli
Procedure: FICs can be performed by checkerboard titrations of compounds in one dimension of a microtiter plate, and of antibiotics in the other dimension, for example. The FIC is calculated by looking at the impact of one antibiotic on the MIC of the other and vice versa. […] As used herein, FIC can be determined as follows: FIC = (MIC(compound in combination))/(MIC(compound alone)) + (MIC(antibiotic in combination))/(MIC(antibiotic alone)) [formula]

[5] = Stability (half-lives) in phosphate buffer, decomposition observed via HPLC; assay type: physicochemical; conditions: 50 mM phosphate buffer, room temperature; for stabilities (half-lives) pH 2.0: pH 2.0, approximately 10 mM; for stabilities (half-lives) pH 7.0: pH 7.0, approximately 10 mM; for stabilities (half-lives) pH 12.0: pH 12.0, approximately 10 mM
Procedure: Compounds 352 - 354 were dissolved in 50 mM phosphate buffered water (pH 2.0, 7.0 or 12.0) at approximately 10 mM concentrations. […] These compounds were used since they contain a chromophore that facilitated monitoring of decomposition by absorption methods common in the HPLC apparatus used.

[6] = test system: Pseudomonas aeruginosa ATCC 27853; assay: MIC and MBC measurement; assay type: cell-based
Procedure: (§4) General: Microorganisms. Reference strains were purchased from the American Type Culture Collection (Rockville, MD) or Bactrol disks from Difeo Laboratories (Detroit, MI). […] Bacterial strains were maintained on Mueller-Hinton agar plates, and Candida albicans was maintained on Sabouraud Dextrose agar plates.
(§5) Aliquots (20 mL) of the homogeneous solution were then poured in sterile plastic petri dishes (100 x 15 mm, Fisher Scientific). Solutions of compounds were made by dissolving the HCl salt of the respective compound into an appropriate amount of deionized and sterilized water followed by microfiltration.
(§6) Aliquots of 1 mL of the suspension were added to test tubes containing 1 mL TSB and incrementally varied concentrations of cholic acid derivatives and/or erythromycin or novobiocin. […] Additionally, an alliquot from each of the samples showing no measurable turbidity was subcultured on TSA plates (alliquots were diluted to provide fewer than 300 CFU). Colonies that grew on the subculture after overnight incubation were counted and the number of CFU/mL in the samples were calculated. The calculated values were compared to the number of CFU/mL in the original inoculum.

E. coli (ATCC 10798) [7] = assay: MIC and MBC measurement; assay type: cell-based, Escherichia coli; conditions: Escherichia coli, ATCC10798, E. coli (ATCC 10798); for MIC: read-out: MIC
Procedure: as §4, §5, §6

E. coli (ATCC 10798) [8] = assay: Sensitization to erythromycin or novobiocin (outer membrane permeabilization, FIC); assay type: cell-based, Escherichia coli; conditions: E. coli (ATCC 10798); for MBC: Escherichia coli
Procedure: (§7) FICs can be performed by checkerboard titrations of compounds in one dimension of a microtiter plate, and of antibiotics in the other dimension, for example. The FIC is calculated by looking at the impact of one antibiotic on the MIC of the other and vice versa. […] Preferably, an FIC of less than 0.5 is obtained for synergism. As used herein, FIC can be determined as follows: FIC = (MIC(compound in combination))/(MIC(compound alone)) + (MIC(antibiotic in combination))/(MIC(antibiotic alone)) [formula]
(§8) Aliquots of 1 mL of the suspension were added to test tubes containing 1 mL TSB and incrementally varied concentrations of cholic acid derivatives and/or erythromycin or novobiocin. In the sensitization experiments, erythromycin or novobiocin were added 15 minutes later than the cholic acid derivatives. The samples were subjected to stationary incubation at 37°C for 24 hours. Sample turbidity was determined by measuring absorption at 760 nm (HP 8453 UV-Visible Chemstation, Hewlett Packard). Additionally, an alliquot from each of the samples showing no measurable turbidity was subcultured on TSA plates (alliquots were diluted to provide fewer than 300 CFU). Colonies that grew on the subculture after overnight incubation were counted and the number of CFU/mL in the samples were calculated. The calculated values were compared to the number of CFU/mL in the original inoculum.
They were also tested for the ability to permeabilize the outer membrane of Gram-negative bacteria, causing sensitization to hydrophobic antibiotics that cannot cross the outer membrane. The permeabilization of the outer membrane was measured using erythromycin and novobiocin.

[9] = test system: Pseudomonas aeruginosa ATCC 27853; assay: Sensitization to erythromycin, novobiocin or rifampicin (permeabilization, FIC); assay type: cell-based; conditions: P. aureginosa (ATCC 27853)
Procedure: as §7, §8
Concentrations of 0.5, 1.0 or 3.0 µg/mL of these antibiotics were used, and the concentrations of the cholic acid derivatives required to inhibit bacterial growth of Gram-negative strains were determined.

[10] = Staphylococcus aureus, ATCC25923, read-out: MIC
[11] = Escherichia coli, ATCC25922, Table 16 (MIC^b), E. coli (ATTC 25922), read-out: MIC
[12] = ATCC27853, Table 6, P. aureginosa (ATCC 27853)

Structure (SMILES): C[C@H](CCC(=O)OCC[N+](C)(C)C)[C@H]1CC[C@H]2[C@@H]3[C@H](OC(=O)CN)C[C@@H]4C[C@H](OC(=O)CN)CC[C@]4(C)[C@H]3C[C@H](OC(=O)CN)[C@]12C [Compound 324]
- MIC [1, 10]: 15 µg/mL
- MIC [2, 11]: 60 µg/mL
- MHC [3]: >200 µg/mL
- c: concentration of the compounds required to lower the MIC of erythromycin from 30 to 1 µg/mL [4]: 10 µg/mL

Structure (SMILES): C[C@H](CCCN(C)Cc1ccccc1)[C@H]1CC[C@H]2[C@@H]3[C@H](OC(=O)CCN)C[C@@H]4C[C@H](OC(=O)CCN)CC[C@]4(C)[C@H]3C[C@H](OC(=O)CCN)[C@]12C [Compound 353]
- stabilities (half-lives) pH 2.0 [5]: >37 days
- stabilities (half-lives) pH 7.0 [5]: 37 days
- stabilities (half-lives) pH 12.0 [5]: <30 minutes

Structure (SMILES): CCCCCCCCOC(=O)CC[C@@H](C)[C@H]1CC[C@H]2[C@@H]3[C@H](OC(=O)CCCN)C[C@@H]4C[C@H](OC(=O)CCCN)CC[C@]4(C)[C@H]3C[C@H](OC(=O)CCCN)[C@]12C [Compound 343]
- MIC [1, 10]: 1.2 µg/mL (≈ 1.55 µM)
- MIC [2, 11]: 3.5 µg/mL (≈ 4.51 µM)
- MHC [3]: <10 µg/mL
- c: concentration of the compounds required to lower the MIC of erythromycin from 30 to 1 µg/mL [4]: 3.5 µg/mL

Structure (SMILES): C[C@H](CCCN(C)Cc1ccccc1)[C@H]1CC[C@H]2[C@@H]3[C@H](OC(=O)CN)C[C@@H]4C[C@H](OC(=O)CN)CC[C@]4(C)[C@H]3C[C@H](OC(=O)CN)[C@]12C [Compound 352]
- stabilities (half-lives) pH 2.0 [5]: >37 days
- stabilities (half-lives) pH 7.0 [5]: 28 days
- stabilities (half-lives) pH 12.0 [5]: <30 minutes

Structure (SMILES): C[C@H](CCC(=O)OCC[N+](C)(C)C)[C@H]1CC[C@H]2[C@@H]3[C@H](OC(=O)CCCN)C[C@@H]4C[C@H](OC(=O)CCCN)CC[C@]4(C)[C@H]3C[C@H](OC(=O)CCCN)[C@]12C [Compound 326]
- MIC [1, 10]: 14 µg/mL
- MIC [2, 11]: 23 µg/mL
- MHC [3]: >200 µg/mL
- c: concentration of the compounds required to lower the MIC of erythromycin from 30 to 1 µg/mL [4]: 2.0 µg/mL

Structure (SMILES): CC[C@H]1OC(=O)[C@H](C)[C@@H](O[C@H]2C[C@@](C)(OC)[C@@H](O)[C@H](C)O2)[C@H](C)[C@@H](O[C@@H]2O[C@H](C)C[C@H](N(C)C)[C@H]2O)[C@](C)(O)C[C@@H](C)C(=O)[C@H](C)[C@@H](O)[C@]1(C)O [erythromycin, reference compound]
- MIC ([6]; ATCC27853, antibiotic alone, P. aureginosa (ATCC 27853)): 240 µg/mL (≈ 327 µM)
- MIC (E. coli (ATCC 10798) [7]; antibiotic alone): 70 µg/mL (≈ 95.4 µM)
- MIC ([2]; Escherichia coli, ATCC25922, antibiotic alone, E. coli (ATCC 25922), read-out: MIC): 30 µg/mL (≈ 40.9 µM)

Structure (SMILES): C[C@H](CCC(=O)OCC[N+](C)(C)C)[C@H]1CC[C@H]2[C@@H]3[C@H](OC(=O)CCN)C[C@@H]4C[C@H](OC(=O)CCN)CC[C@]4(C)[C@H]3C[C@H](OC(=O)CCN)[C@]12C [Compound 325]
- MIC [1, 10]: 11 µg/mL
- MIC [2, 11]: 30 µg/mL
- MHC [3]: >200 µg/mL
- c: concentration of the compounds required to lower the MIC of erythromycin from 30 to 1 µg/mL [4]: 2.0 µg/mL

Structure (SMILES): CCCCCCCCOC(=O)CC[C@@H](C)[C@H]1CC[C@H]2[C@@H]3[C@H](OC(=O)CN)C[C@@H]4C[C@H](OC(=O)CN)CC[C@]4(C)[C@H]3C[C@H](OC(=O)CN)[C@]12C [Compound 341]
- MIC [1, 10]: 1.8 µg/mL (≈ 2.6 µM)
- MIC [2, 11]: 1 µg/mL (≈ 1.45 µM)
- MHC [3]: 4.0 µg/mL
- c: concentration of the compounds required to lower the MIC of erythromycin from 30 to 1 µg/mL [4]: 0.7 µg/mL

Structure (SMILES): C[C@H](CCCN(C)Cc1ccccc1)[C@H]1CC[C@H]2[C@@H]3[C@H](OCCNC(=N)N)C[C@@H]4C[C@H](OCCNC(=N)N)CC[C@]4(C)[C@H]3C[C@H](OCCNC(=N)N)[C@]12C [Compound 4]
- MBC [6, 12]: 40 µg/mL (≈ 53.1 µM)
- MIC [6, 12]: 15 µg/mL (≈ 19.9 µM)
- MBC (E. coli (ATCC 10798) [7]; Table 1, read-out: MBC): 10 µg/mL (≈ 13.3 µM)
- MIC (E. coli (ATCC 10798) [7]; Table 1): 5 µg/mL (≈ 6.64 µM)
- MBC ([2]; Escherichia coli, ATCC25922, Table 4, E. coli (ATCC 25922)): 9 µg/mL (≈ 12 µM)
- MIC ([2]; Escherichia coli, ATCC25922, Table 4, E. coli (ATCC 25922), read-out: MIC): 6 µg/mL (≈ 7.97 µM)
- MBC (E. coli (ATCC 10798) [8]; ATCC10798, Table 2, with erythromycin): 10 µg/mL
- MBC (E. coli (ATCC 10798) [8]; ATCC10798, Table 3, with novobiocin): 10 µg/mL
- concentration required to lower the MIC of erythromycin from 70 µg/mL to 1 µg/mL (E. coli (ATCC 10798) [8]; Table 2, with erythromycin): 1.5 µg/mL
- MBC ([4]; Escherichia coli, ATCC25922): 5 µg/mL
- concentration required to lower the MIC of erythromycin from 60 µg/mL to 1 µg/mL ([4]; Table 5, E. coli (ATCC 25922), with erythromycin): 1 µg/mL
- MBC ([9]; Pseudomonas aeruginosa, ATCC27853, Table 7, with erythromycin): 40 µg/mL
- concentration required to lower the MIC of erythromycin from 240 µg/mL to 5 µg/mL ([9]; Table 7, with erythromycin): 5 µg/mL
- concentration required to lower the MIC of novobiocin from >500 µg/mL to 1 µg/mL ([9]; Table 8, with novobiocin): 6 µg/mL

Structure (SMILES): C[C@H](CCC(=O)O)[C@H]1CC[C@H]2[C@@H]3[C@H](OC(=O)CN)C[C@@H]4C[C@H](OC(=O)CN)CC[C@]4(C)[C@H]3C[C@H](OC(=O)CN)[C@]12C [Compound 327]
- MIC [1]: >100 µg/mL
- MIC ([2]; Table 16, second MIC column (MIC^b), E. coli (ATTC 25922)): >100 µg/mL
- MHC [3]: >100 µg/mL
- c: concentration of the compounds required to lower the MIC of erythromycin from 30 to 1 µg/mL [4]: >100 µg/mL
